The text below walks through data of ChEMBL document CHEMBL5625266, “Design, synthesis and biological evaluation of novel cyclic malonamide derivatives as selective RIPK1 inhibitors” (Bioorg Med Chem Lett, 2024).

One data set relates to U-937. As to the kind of experiment: Inhibition of necroptosis in human U-937 cells. Format: functional, cell-based.
In data set [1] the target is T1, Receptor-interacting serine/threonine-protein kinase 1 (Homo sapiens, UniProt Q13546).
T1 sequence (Q13546 whole entry): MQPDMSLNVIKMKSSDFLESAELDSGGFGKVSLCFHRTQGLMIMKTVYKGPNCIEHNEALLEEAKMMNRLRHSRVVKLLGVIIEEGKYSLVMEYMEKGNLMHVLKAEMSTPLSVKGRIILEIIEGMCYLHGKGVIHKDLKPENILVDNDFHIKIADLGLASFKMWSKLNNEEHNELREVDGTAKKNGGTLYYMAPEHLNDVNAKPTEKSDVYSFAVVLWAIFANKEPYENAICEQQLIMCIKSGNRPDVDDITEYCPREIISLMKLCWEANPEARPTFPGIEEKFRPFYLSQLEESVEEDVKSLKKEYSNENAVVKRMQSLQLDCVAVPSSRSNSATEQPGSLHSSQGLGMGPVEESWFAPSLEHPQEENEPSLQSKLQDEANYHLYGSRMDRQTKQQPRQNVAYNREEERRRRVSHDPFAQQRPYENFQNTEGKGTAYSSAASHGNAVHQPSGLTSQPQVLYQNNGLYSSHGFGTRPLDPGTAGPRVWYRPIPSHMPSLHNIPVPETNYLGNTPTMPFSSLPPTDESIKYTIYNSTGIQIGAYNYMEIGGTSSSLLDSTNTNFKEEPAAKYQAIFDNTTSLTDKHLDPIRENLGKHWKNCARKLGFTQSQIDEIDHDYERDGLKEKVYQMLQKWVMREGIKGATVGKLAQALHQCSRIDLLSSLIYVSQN
As to the kind of experiment: Inhibition of human RIPK1 assessed as inhibition constant by ADP-Glo Kinase assay. For orientation: ADP-Glo turns the ADP formed in a reaction into a luminescent signal.

The target in data set [2] is Mitogen-activated protein kinase kinase kinase 9 (Homo sapiens) (UniProt P80192). As to the kind of experiment: Inhibition of MLK1 (unknown origin) at 10 uM relative to control.
Chain of Mitogen-activated protein kinase kinase kinase 9 (Homo sapiens) (P80192 whole entry, looked up): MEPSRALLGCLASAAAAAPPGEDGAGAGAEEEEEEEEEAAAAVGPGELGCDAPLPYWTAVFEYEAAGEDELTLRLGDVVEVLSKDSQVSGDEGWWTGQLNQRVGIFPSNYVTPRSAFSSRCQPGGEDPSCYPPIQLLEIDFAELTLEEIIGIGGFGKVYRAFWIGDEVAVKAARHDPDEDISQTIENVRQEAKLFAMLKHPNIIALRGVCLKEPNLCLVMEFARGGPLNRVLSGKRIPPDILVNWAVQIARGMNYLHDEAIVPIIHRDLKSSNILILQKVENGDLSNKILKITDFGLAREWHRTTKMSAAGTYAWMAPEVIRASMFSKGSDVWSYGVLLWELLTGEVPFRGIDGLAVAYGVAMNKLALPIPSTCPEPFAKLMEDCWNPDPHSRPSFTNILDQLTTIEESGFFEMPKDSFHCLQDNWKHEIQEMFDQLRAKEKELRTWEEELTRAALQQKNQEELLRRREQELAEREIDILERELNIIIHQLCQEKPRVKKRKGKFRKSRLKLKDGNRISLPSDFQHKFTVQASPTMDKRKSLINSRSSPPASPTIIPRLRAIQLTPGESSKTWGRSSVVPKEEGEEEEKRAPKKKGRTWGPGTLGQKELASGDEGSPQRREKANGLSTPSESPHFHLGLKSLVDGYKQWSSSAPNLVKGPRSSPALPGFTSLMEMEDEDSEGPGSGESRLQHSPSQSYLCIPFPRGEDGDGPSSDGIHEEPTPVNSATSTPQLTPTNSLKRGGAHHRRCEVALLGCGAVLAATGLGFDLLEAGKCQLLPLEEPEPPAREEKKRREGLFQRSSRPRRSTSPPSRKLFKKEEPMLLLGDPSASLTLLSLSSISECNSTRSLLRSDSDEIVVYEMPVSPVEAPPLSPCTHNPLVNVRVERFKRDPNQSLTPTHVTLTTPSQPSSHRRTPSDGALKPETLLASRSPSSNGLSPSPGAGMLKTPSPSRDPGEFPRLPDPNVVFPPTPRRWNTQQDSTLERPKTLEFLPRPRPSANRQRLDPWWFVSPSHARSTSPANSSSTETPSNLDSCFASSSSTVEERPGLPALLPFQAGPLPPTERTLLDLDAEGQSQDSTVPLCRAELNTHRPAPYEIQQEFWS
A short description of data set [3]: Stability of the compound in PBS at pH 7.4 measured after 24 hrs. Format: physicochemical. The conditions noted are these: read-out: Stability.
Data set [4] deals with T2, Receptor-interacting serine/threonine-protein kinase 1 (Homo sapiens) (UniProt Q13546).
T2 sequence (whole entry): T1 sequence (Q13546 whole entry)
Put plainly: Inhibition of RIPK1 (unknown origin) at 1 uM relative to control.

With `CN1C(=O)C(C(=O)Nc2cn(Cc3ccccc3)cn2)CCc2ccncc21` (stereo not drawn), in the data set on U-937, the half-inhibitory concentration (IC50) (as a rule, the concentration that inhibits the measured activity by half) is 0.562 µM. For the same molecule, the Ki (commonly a dissociation constant, usually derived from enzyme kinetics or from competition with a known ligand) in data set [1] was 0.794 µM. In turn, `CN1C(=O)C(C(=O)Nc2ncc(Cc3ccccc3)o2)CCc2ccccc21` (stereo not drawn) had an IC50 in the data set with U-937 of 0.891 µM. In data set [1], the Ki was 0.2 µM. The like results for `CN1C(=O)C(C(=O)Nc2cn(Cc3ccccc3)cn2)CCc2cccnc21` (stereo not drawn) were, in that order, 1.1 µM and 0.214 µM. In the case of `COc1cc2c(cn1)N(C)C(=O)[C@H](C(=O)Nc1ncc(Cc3ccccc3)s1)CC2`, in data set [2], the inhibition (commonly the change of the read-out against control, counted positive when it falls) is 28%. Also, in data set [1], the Ki was 1.45 µM. In the data set with U-937, `COc1cc2c(cn1)N(C)C(=O)C(C(=O)Nc1cn(Cc3ccccc3)cn1)CC2` (stereo not drawn) showed an IC50 of 0.427 µM. For the same molecule, the Ki in data set [1] is 0.575 µM. In the case of `CN1C(=O)C(C(=O)Nc2nc(Cc3ccccc3)n[nH]2)CCc2ccccc21` (stereo not drawn), in data set [3], the remaining at 24 h worked out at 14%. In data set [4], the inhibition is 22%. Regarding `CN1C(=O)C(C(=O)Nc2ncc(Cc3ccccc3)s2)CCc2ccccc21` (stereo not drawn), in the data set on U-937, inhibition was half-maximal at 0.0112 µM (IC50). In addition, the inhibitory constant (Ki) in data set [1] was 0.00191 µM. Molecule `COc1cc2c(cn1)N(C)C(=O)C(C(=O)Nc1ncc(Cc3ccccc3)s1)CC2` (racemic) had a 50% inhibitory concentration (IC50) in the data set on U-937 of 0.0575 µM. Also, the inhibition constant Ki in data set [1] is 0.0525 µM. In the same order, the values of `CN1C(=O)C(C(=O)Nc2ncn(Cc3ccccc3)n2)CCc2ccccc21` (stereo not drawn) are 0.0617 µM and 0.0437 µM.

Turning to `CN1C(=O)[C@@H](NC(=O)c2n[nH]c(Cc3ccccc3)n2)COc2ccccc21` [GSK2982772], in the data set with U-937, the IC50 is 0.00589 µM. On to `CN1C(=O)C(C(=O)Nc2nnn(Cc3ccccc3)n2)CCc2ccccc21` (stereo not drawn), for which the IC50 in the data set on U-937 was 0.0363 µM. Moreover, the Ki in data set [1] was 0.0316 µM.

Molecule `COc1cc2c(cn1)N(C)C(=O)[C@@H](C(=O)Nc1ncc(Cc3ccccc3)s1)CC2` gave a 50% inhibitory concentration (IC50) in the data set with U-937 of 0.0631 µM. In addition, the inhibition constant Ki in data set [1] was 0.0219 µM. The like results for `CN1C(=O)C(C(=O)Nc2cn(Cc3ccccc3)nn2)CCc2ccccc21` (stereo not drawn) were, in that order, 0.0794 µM and 0.0589 µM. The like results for `CN1C(=O)C(C(=O)Nc2cn(Cc3c(F)cccc3F)cn2)CCc2ccccc21` (stereo not drawn) were, in that order, 0.148 µM and 0.0562 µM. Take `CN1C(=O)C(C(=O)Nc2cn(Cc3ccccc3)cn2)CCc2ccccc21` (stereo not drawn): in data set [1], the Ki was 0.135 µM.
